In ChEMBL document CHEMBL1201862, “PubChem BioAssay data set” (2004):
Active and inactive are the calls of the source.

Columns and labels:
[1] = biological target: FAD-linked sulfhydryl oxidase ALR (Homo sapiens, UniProt P55789); experiment: inhibitors of human ALR sulfhydryl oxidase, dose response, biochemical, H2O2 detection, luminescence, cherry-pick (AID 493248)
[2] = biological target: T1, Polyadenylate-binding protein 1 (Homo sapiens, UniProt P11940); experiment: PABP1 MLLE–PAM2 interaction inhibitors, dose response, miRNA deadenylation inhibitor project, biochemical, fluorescence polarization, Cy5-PAM2 peptide, secondary (AID 602260); assay type: functional; conditions: read-out: IC50_Mean
T1 sequence (P11940 whole entry): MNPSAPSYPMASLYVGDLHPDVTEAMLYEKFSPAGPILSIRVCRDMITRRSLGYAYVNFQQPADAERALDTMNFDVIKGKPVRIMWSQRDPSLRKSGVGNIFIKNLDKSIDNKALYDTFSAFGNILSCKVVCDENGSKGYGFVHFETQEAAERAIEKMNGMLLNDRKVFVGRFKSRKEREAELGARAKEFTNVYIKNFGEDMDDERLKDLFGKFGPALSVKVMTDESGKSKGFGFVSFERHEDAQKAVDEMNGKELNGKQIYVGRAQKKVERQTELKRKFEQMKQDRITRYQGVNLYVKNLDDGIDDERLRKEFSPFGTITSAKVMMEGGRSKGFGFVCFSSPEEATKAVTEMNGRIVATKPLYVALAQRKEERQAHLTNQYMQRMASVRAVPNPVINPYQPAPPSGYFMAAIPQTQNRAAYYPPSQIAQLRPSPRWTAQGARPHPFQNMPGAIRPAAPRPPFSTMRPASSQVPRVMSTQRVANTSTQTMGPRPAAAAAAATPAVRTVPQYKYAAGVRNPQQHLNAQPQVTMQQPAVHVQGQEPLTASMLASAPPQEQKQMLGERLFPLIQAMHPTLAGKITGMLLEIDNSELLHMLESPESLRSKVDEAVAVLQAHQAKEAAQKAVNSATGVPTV

[3] = biological target: T1, Polyadenylate-binding protein 1; experiment: PABP1 MLLE–PAM2 binding inhibitor potency, dose response, biochemical, fluorescence polarization, FITC-PAM2 peptide (AID 602259); assay type: functional; conditions: read-out: IC50_Mean
[4] = biological target: T2, Rac GTPase-activating protein 1 (Homo sapiens, UniProt Q9H0H5); experiment: MgcRacGAP GTPase-activating activity inhibitors, confirmation, biochemical, ADP Hunter fluorescence, primary and confirmatory (AID 624330); assay type: functional
T2 sequence (Q9H0H5 whole entry): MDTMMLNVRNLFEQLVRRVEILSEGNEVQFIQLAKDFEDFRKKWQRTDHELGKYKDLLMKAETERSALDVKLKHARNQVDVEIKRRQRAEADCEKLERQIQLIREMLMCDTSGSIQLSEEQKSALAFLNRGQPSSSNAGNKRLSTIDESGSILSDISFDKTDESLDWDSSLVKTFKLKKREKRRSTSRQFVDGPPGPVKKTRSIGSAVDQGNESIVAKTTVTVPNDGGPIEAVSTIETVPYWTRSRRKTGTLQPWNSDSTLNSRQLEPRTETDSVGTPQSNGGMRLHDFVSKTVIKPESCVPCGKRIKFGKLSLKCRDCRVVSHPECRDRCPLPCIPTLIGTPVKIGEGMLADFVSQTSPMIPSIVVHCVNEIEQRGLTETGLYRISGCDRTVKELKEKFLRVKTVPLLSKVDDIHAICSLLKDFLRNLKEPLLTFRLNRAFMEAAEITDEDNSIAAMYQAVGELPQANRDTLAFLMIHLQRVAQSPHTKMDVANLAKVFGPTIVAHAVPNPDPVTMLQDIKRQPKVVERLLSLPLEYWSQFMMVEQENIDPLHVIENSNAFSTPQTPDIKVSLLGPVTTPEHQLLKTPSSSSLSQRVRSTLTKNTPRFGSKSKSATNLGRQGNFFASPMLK

[5] = NIH-3T3 fibroblast cytotoxicity, dose response, cytotoxicity control, cell-based, fluorescence, Alamar Blue, secondary assay (AID 2327); assay type: functional;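 note: NIH-3T3 mouse fibroblasts cultured with fluconazole at 8 µg/mL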
[6] = C. albicans growth with fluconazole, confirmation, fluorescence, retest (AID 2467); assay type: functional, cell-based
[7] = biological target: T3, Calpain-2 catalytic subunit (Sus scrofa, UniProt P43367); experiment: pig calpain II inhibitor potency, dose response, biochemical, fluorogenic peptide substrate (AID 1420); assay type: functional
T3 sequence (P43367 whole entry): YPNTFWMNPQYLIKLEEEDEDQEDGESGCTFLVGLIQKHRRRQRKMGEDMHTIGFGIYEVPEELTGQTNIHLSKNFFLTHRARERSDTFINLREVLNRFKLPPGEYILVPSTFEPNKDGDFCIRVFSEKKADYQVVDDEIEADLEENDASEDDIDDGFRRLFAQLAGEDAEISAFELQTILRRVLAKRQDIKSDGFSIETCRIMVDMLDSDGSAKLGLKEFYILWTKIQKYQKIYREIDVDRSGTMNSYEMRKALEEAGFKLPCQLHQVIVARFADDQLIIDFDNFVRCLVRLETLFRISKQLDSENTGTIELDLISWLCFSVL

[8] = biological target: T4, Mannose-6-phosphate isomerase (Homo sapiens, UniProt P34949); experiment: human PMI inhibitors, high substrate, primary screen, biochemical, fluorescence intensity, high mannose 6-phosphate (AID 1220)
T4 sequence (P34949 whole entry): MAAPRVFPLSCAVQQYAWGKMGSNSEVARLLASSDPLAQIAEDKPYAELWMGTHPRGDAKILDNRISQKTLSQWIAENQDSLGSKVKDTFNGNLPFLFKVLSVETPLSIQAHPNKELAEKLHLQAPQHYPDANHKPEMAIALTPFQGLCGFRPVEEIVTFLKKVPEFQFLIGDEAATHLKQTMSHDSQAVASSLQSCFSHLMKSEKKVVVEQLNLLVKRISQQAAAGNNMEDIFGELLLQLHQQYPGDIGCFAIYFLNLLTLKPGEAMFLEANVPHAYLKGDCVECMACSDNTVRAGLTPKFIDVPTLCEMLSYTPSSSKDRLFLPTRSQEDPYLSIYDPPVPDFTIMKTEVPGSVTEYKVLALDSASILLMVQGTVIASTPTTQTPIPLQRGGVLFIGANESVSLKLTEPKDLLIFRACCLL

Chain of FAD-linked sulfhydryl oxidase ALR (P55789 whole entry): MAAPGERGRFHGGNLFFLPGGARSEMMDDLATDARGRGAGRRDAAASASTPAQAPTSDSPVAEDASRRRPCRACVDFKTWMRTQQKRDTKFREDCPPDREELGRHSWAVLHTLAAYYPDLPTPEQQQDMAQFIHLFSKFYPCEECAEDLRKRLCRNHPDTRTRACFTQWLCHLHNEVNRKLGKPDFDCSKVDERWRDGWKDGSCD

SMILES	AC50 [1]	IC50 [7]	other results
O=C(CCc1c[nH]c2ccccc12)NCCc1ccc(O)cc1	7.62 µM (active)	–	IC50 [4]: 112 µM (active)
C/C(=N\Nc1ccc([N+](=O)[O-])cc1)c1ccc(O)cc1	0.136 µM (active)	–	EC50 [5]: > 150 µM (inactive); EC50 [6]: > 38 µM (not active)
[O-][S+](N1CCc2ccccc21)C12CC3CC(CC(C3)C1)C2 (stereo not drawn)	–	10.8 µM (not active)	–
CC(=N\Nc1ccc(Cl)cc1)/C(=N/O)C(=O)Nc1ccccc1	0.104 µM (active)	–	–
CCN(CC)c1ccc(/C=N/NC(=O)CC(C)C)cc1	2.97 µM (active)	–	–
Cc1ccc(NCc2ccc(O)c3ncccc23)cc1	–	–	EC50 [5]: > 160 µM (inconclusive); EC50 [6]: > 38 µM (not active); IC50 [8]: > 50 µM (not active)

Continued, in another order:

AC50 [1]	IC50 [7]	SMILES	other results
< 0.005 µM (active)	–	Cc1ccc(C2SCC(=O)N2c2ccccc2)cc1 (stereo not drawn)	IC50 [2]: > 66 µM (inactive); IC50 [3]: > 66 µM (inactive)
–	3.03 µM (not active)	COc1ccc(-c2nc(NC(=O)CCNC(=O)c3ccco3)sc2C)cc1	–
–	> 50 µM (not active)	C/C(=N\OCC(=O)Nc1ccc(Br)cc1)c1cccs1	–
–	> 50 µM (not active)	O=C(O)CCC(=O)N1CCN(c2ccc(C(=O)c3ccc(F)cc3)cc2)CC1	–
–	< 0.4 µM (not active)	CCOc1ccc(NC(=O)CCC(=O)n2nc(C)cc2C)cc1	–
2.76 µM (active)	–	CSCc1ccc(C(=O)N2CCCC(Nc3ccc(F)cc3)C2)o1 (stereo not drawn)	–
3.84 µM (active)	–	CN(c1ccc(O)cc1)c1nc(-c2cccnc2)cs1	IC50 [4]: 17.5 µM (active)
–	> 50 µM (not active)	Cc1ccc2c(c1)CCCN2C(=O)c1ccc2c(c1)OCO2	–
–	1.1 µM (not active)	Cc1ccc(N(CC(=O)Nc2cccc(C)c2)S(=O)(=O)c2cccc3nonc23)cc1	–
